# Experimental data published in ChEMBL document CHEMBL1152219, “Synthesis and use of sulfonamide-, sulfoxide-, or sulfone-containing aminoglycoside-CoA bisubstrates as mechanistic probes for aminoglycoside N-6'-acetyltransferase” (Bioorg Med Chem Lett, 2008).
# Experiment: Inhibition of aminoglycoside N-6'-acetyltransferase Ii
row,SMILES,Ki [µM]
1,CC(C)(COP(=O)(O)OP(=O)(O)OC[C@H]1O[C@@H](n2cnc3c(N)ncnc32)[C@H](O)[C@@H]1OP(=O)(O)O)[C@@H](O)C(=O)NCCC(=O)NCCSCC(=O)NC[C@H]1O[C@H](O[C@H]2[C@H](O)[C@@H](O)[C@H](N)C[C@@H]2N)[C@H](N)[C@@H](O)[C@@H]1O,0.076
2,CC(C)(COP(=O)(O)OP(=O)(O)OC[C@H]1O[C@@H](n2cnc3c(N)ncnc32)[C@H](O)[C@@H]1OP(=O)(O)O)[C@@H](O)C(=O)NCCC(=O)NCCSCCC(=O)NC[C@H]1O[C@H](O[C@H]2[C@H](O)[C@@H](O)[C@H](N)C[C@@H]2N)[C@H](N)[C@@H](O)[C@@H]1O,0.043
3,CC(C)(COP(=O)(O)OP(=O)(O)OC[C@H]1O[C@@H](n2cnc3c(N)ncnc32)[C@H](O)[C@@H]1OP(=O)(O)O)[C@@H](O)C(=O)NCCC(=O)NCCSCCS(=O)(=O)NC[C@H]1O[C@H](O[C@H]2[C@H](O)[C@@H](O)[C@H](N)C[C@@H]2N)[C@H](N)[C@@H](O)[C@@H]1O,1.6
4,CC(C)(COP(=O)(O)OP(=O)(O)OC[C@H]1O[C@@H](n2cnc3c(N)ncnc32)[C@H](O)[C@@H]1OP(=O)(O)O)[C@@H](O)C(=O)NCCC(=O)NCC[S+]([O-])CC(=O)NC[C@H]1O[C@H](O[C@H]2[C@H](O)[C@@H](O)[C@H](N)C[C@@H]2N)[C@H](N)[C@@H](O)[C@@H]1O (some centres not stated),0.06
5,CC(C)(COP(=O)(O)OP(=O)(O)OC[C@H]1O[C@@H](n2cnc3c(N)ncnc32)[C@H](O)[C@@H]1OP(=O)(O)O)[C@@H](O)C(=O)NCCC(=O)NCC[S+]([O-])CCC(=O)NC[C@H]1O[C@H](O[C@H]2[C@H](O)[C@@H](O)[C@H](N)C[C@@H]2N)[C@H](N)[C@@H](O)[C@@H]1O (some centres not stated),2
6,CC(C)(COP(=O)(O)OP(=O)(O)OC[C@H]1O[C@@H](n2cnc3c(N)ncnc32)[C@H](O)[C@@H]1OP(=O)(O)O)[C@@H](O)C(=O)NCCC(=O)NCCS(=O)(=O)CC(=O)NC[C@H]1O[C@H](O[C@H]2[C@H](O)[C@@H](O)[C@H](N)C[C@@H]2N)[C@H](N)[C@@H](O)[C@@H]1O,0.27
7,CC(C)(COP(=O)(O)OP(=O)(O)OC[C@H]1O[C@@H](n2cnc3c(N)ncnc32)[C@H](O)[C@@H]1OP(=O)(O)O)[C@@H](O)C(=O)NCCC(=O)NCCS(=O)(=O)CCC(=O)NC[C@H]1O[C@H](O[C@H]2[C@H](O)[C@@H](O)[C@H](N)C[C@@H]2N)[C@H](N)[C@@H](O)[C@@H]1O,0.09
